Results reported in ChEMBL document CHEMBL4364283 (J Med Chem, 2019).

Tests used:
MV4-11 = assay: cells; conditions: Homo sapiens, MV4-11, 96 h
Menin [1] = molecular target: T1, Menin (Homo sapiens, UniProt O00255); assay: Inhibition of FAM-probe binding to Menin (unknown origin) after 60 mins by fluorescence polarization competitive binding assay
T1 sequence (O00255 whole entry): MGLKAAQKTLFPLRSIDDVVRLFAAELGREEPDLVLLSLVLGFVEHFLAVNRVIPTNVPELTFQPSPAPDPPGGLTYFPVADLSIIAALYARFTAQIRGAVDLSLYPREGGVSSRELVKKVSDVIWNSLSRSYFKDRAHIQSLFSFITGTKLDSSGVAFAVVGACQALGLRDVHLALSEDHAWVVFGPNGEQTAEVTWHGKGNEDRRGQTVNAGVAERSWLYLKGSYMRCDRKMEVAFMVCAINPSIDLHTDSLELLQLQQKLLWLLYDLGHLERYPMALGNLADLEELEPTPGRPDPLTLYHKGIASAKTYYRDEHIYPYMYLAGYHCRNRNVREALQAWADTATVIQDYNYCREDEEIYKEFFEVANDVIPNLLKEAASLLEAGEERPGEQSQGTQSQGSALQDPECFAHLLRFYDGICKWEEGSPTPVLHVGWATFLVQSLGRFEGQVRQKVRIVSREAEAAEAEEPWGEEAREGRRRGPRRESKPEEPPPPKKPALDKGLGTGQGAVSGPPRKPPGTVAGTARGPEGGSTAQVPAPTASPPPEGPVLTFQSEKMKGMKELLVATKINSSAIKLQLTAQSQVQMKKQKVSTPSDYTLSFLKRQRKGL

Menin [2] = molecular target: T1, Menin; assay: Binding affinity to human Menin expressed in Escherichia coli Rosetta2 (DE3) cells by isothermal titration calorimetry
[3] = Solubility of the compound; format: physicochemical
Menin [4] = molecular target: Menin (Homo sapiens, UniProt O00255); assay: Inhibition of fluorescent probe binding to Menin (2 to 610 residues containing deletion from 460-519) (unknown origin) after 60 mins by fluorescence polarization competitive binding assay

| Compound | IC50 (MV4-11) | IC50 (Menin [1]) | Ki (Menin [1]) | Kd (Menin [2]) | solubility [3] | IC50 (Menin [4]) |
| --- | --- | --- | --- | --- | --- | --- |
| CCCC(=O)O[C@H]1CCC[C@@H]1[C@](C#N)(c1ccccc1)C1CCN(CC2CN(c3ccc(C#N)cc3)C2)CC1 (mixture of isomers) | 10700 nM | 1100 nM | 350 nM |  |  |  |
| N#Cc1ccc(N2CC(CN3CCC(C4(C5CCCC5)NCCc5ccccc54)CC3)C2)cc1 (configuration not stated) | 1300 nM |  | 11 nM |  |  |  |
| CC(C)S(=O)(=O)c1ccc(N2CC(CN3CCC(C4(C5CCCC5)NCCc5ccccc54)CC3)C2)cc1 (configuration not stated) | 1100 nM |  | 21 nM |  |  |  |
| CCO[C@H]1CCC[C@@H]1[C@](C#N)(c1ccccc1)C1CCN(CC2CN(c3ccc(C#N)cc3)C2)CC1 (racemic) | 4300 nM | 5400 nM | 1700 nM |  |  |  |
| Cc1c(CN2CCC(Nc3ncnc4sc(CC(F)(F)F)cc34)CC2)ccc2c1cc(C#N)n2Cc1cn[nH]c1 |  |  |  | 10 nM |  |  |
| N#Cc1ccc(OCCN2CCC(C3(C4CCCC4)NCCc4ccccc43)CC2)cc1 (configuration not stated) | 1800 nM | 21200 nM | 5500 nM |  |  |  |
| O=S(=O)(c1ccc(N2CC(CN3CCC(C4(C5CCCC5)NCCc5ccccc54)CC3)C2)cc1)C1CCC1 (configuration not stated) | 1700 nM |  | 11 nM |  |  |  |
| N#Cc1cc2cc(CN3CCC(Nc4ncnc5sc(CC(F)(F)F)cc45)CC3)c(O)cc2n1Cc1cn[nH]c1 |  |  |  | 10 nM |  |  |
| O=S(=O)(c1ccccc1)c1ccc(N2CC(CN3CCC(C4(C5CCCC5)NCCc5ccccc54)CC3)C2)cc1 (configuration not stated) | 500 nM | 20 nM | 5.6 nM |  |  |  |
| N#Cc1ccc(N2CCCC(CN3CCC(C4(C5CCCC5)NCCc5ccccc54)CC3)C2)cc1 (configuration not stated) |  | 6600 nM | 2130 nM |  |  |  |
| O=S(=O)(c1ccc(N2CC(CN3CCC(C4(C5CCCC5)NCCc5ccccc54)CC3)C2)cc1)C1CCCC1 (configuration not stated) | 900 nM | 17 nM | 4.6 nM |  |  |  |
| O=S(=O)(c1ccncc1)c1ccc(N2CC(CN3CCC(C4(C5CCCC5)CN(CCN5CCOCC5)Cc5ccccc54)CC3)C2)cc1 (configuration not stated) | 1550 nM |  | 2.7 nM |  |  |  |
| O=S(=O)(c1ccncc1)c1ccc(N2CC(CN3CCC(C4(C5CCCC5)NCCc5ccccc54)CC3)C2)cc1 (configuration not stated) | 1300 nM | 17 nM | 4.6 nM |  | Soluble |  |
| COC(=O)N[C@H]1CCC[C@@H]1[C@](C#N)(c1cccc(F)c1)C1CCN(CC2CN(c3ccc(S(=O)(=O)C4CN(C(=O)/C=C/CN(C)C)C4)cc3)C2)CC1 |  |  |  |  |  | 3 nM |
| N#Cc1ccc(OCCCCN2CCC(C3(C4CCCC4)NCCc4ccccc43)CC2)cc1 (configuration not stated) | 500 nM | 5000 nM | 1300 nM |  |  |  |
| O=S(=O)(c1ccncc1)c1ccc(N2CC(CN3CCC(C4(C5CCCC5)CN(C5CCC5)Cc5ccccc54)CC3)C2)cc1 (configuration not stated) | 900 nM |  | 2 nM |  |  |  |
| N#Cc1ccc(N2CCC(N3CCC(C4(C5CCCC5)NCCc5ccccc54)CC3)CC2)cc1 (configuration not stated) | 6330 nM | 650 nM | 207 nM |  |  |  |
| O=S(=O)(c1ccncc1)c1ccc(N2CC(CN3CCC(C4(C5CCCC5)CNCc5ccccc54)CC3)C2)cc1 (configuration not stated) | 980 nM |  | 1.7 nM |  |  |  |
